Data published in ChEMBL document CHEMBL1137750, “Synthesis and biological evaluation of 4,5-diphenyloxazolone derivatives on route towards selective COX-2 inhibitors” (Eur J Med Chem, 2009).

Legend:
[1] = biological target: T1, Prostaglandin G/H synthase 1 (Ovis aries) (UniProt P05979); assay: Inhibition of ovine COX1 at 10 uM by enzyme immunoassay relative to control
T1 sequence (whole entry): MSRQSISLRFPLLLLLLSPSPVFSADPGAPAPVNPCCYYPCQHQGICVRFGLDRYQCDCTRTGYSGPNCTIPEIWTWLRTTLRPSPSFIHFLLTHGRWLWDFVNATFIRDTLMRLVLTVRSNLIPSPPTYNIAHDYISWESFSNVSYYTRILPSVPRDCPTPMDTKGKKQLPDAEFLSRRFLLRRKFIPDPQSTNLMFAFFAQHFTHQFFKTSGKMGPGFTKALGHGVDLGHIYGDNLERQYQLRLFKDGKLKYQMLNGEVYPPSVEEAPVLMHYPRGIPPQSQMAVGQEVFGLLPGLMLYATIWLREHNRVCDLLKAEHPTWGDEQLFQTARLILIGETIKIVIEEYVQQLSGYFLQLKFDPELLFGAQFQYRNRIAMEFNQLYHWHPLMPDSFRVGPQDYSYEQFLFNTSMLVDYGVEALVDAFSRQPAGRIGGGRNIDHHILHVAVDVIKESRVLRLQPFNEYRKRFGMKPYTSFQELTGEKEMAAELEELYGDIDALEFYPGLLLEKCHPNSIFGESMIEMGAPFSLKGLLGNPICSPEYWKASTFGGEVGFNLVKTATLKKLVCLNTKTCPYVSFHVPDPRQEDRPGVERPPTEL

[2] = biological target: T1, Prostaglandin G/H synthase 1 (Ovis aries); assay: Inhibition of ovine COX1 at 100 uM by enzyme immunoassay relative to control
[3] = biological target: T2, Prostaglandin G/H synthase 1 (Ovis aries, UniProt P05979); assay: Inhibition of ovine COX1 by enzyme immunoassay
T2 sequence (P05979 whole entry): T1 sequence (whole entry)

Ovis aries = species: Ovis aries; assay: Selectivity index, raio of IC50 for ovine COX1 to IC50 for ovine COX2
[4] = biological target: T3, Prostaglandin G/H synthase 2 (Homo sapiens) (UniProt P35354); assay: Inhibition of COX2 in LPS-stimulated human whole blood assessed as PGE2 production by enzyme immunoassay; format: tissue-based; conditions: concentration not given here
T3 sequence (whole entry): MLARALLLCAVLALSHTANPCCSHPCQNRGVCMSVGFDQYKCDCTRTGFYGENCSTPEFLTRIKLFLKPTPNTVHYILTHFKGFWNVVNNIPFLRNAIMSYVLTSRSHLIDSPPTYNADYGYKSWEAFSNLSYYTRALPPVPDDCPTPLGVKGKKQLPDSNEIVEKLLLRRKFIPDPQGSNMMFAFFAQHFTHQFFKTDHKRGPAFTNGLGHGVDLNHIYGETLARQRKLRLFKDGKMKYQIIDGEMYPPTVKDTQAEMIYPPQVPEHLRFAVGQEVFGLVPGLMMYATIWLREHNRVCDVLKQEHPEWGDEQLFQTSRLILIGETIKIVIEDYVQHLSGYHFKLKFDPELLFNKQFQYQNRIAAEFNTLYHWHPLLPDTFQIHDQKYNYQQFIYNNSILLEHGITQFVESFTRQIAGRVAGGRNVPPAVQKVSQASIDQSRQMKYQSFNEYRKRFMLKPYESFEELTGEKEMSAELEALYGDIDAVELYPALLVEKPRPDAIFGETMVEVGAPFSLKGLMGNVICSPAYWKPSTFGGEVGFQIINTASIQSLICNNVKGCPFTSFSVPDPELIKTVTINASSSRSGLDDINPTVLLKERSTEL

[5] = biological target: Prostaglandin G/H synthase 1 (Homo sapiens) (UniProt P23219); assay: Inhibition of COX1 in human whole blood assessed as TXB2 production at 10 uM by enzyme immunoassay
Sequence of Prostaglandin G/H synthase 1 (Homo sapiens) (P23219 whole entry): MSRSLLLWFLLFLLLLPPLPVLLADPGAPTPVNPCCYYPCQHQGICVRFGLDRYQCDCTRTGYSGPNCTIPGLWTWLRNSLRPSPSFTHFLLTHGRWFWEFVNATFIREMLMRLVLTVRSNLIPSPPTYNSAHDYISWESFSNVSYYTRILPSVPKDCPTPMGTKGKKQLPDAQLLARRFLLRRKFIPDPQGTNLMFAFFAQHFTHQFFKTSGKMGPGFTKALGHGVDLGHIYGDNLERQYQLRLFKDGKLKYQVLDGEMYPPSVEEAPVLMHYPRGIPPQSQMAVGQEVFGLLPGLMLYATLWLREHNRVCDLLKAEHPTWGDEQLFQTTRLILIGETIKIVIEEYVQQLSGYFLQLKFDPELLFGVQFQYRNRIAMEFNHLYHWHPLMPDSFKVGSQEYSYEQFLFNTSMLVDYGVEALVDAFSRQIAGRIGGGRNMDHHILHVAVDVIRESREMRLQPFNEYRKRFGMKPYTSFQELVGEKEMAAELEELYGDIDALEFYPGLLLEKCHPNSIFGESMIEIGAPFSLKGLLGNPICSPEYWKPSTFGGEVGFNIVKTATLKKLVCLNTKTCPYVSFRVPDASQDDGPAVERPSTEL

inhibition [1]	inhibition [2]	IC50 [3]	Ratio IC50 (Ovis aries)	inhibition [4]	inhibition [5]	Compound
71.9%						COc1ccc2c(c1)c(CC(=O)O)c(C)n2C(=O)c1ccc(Cl)cc1
3.56%	19.3%	> 100 µM	> 50	85%	7%	Cn1c(-c2ccccc2)c(-c2ccc(S(N)(=O)=O)cc2)oc1=O
